Reference: patent publication US10221175B2, “Substituted pyrrolo[3,4-e]indolizines, imidazo[1,2-a]pyrrolo[3,4-e]pyridines, pyrrolo[3,4-e][1,2,4]triazolo[1,5-a]pyridines and pyrrolo[3,4-e][1,2,4]triazolo[4,3-a]pyridines as positive allosteric modulators of muscarinic acetylcholine receptor M1” (Vanderbilt University, priority 2015, dated 2019)

Biological target: T1, mAChR M1 (UniProt P11229)
T1 sequence (P11229 1-460): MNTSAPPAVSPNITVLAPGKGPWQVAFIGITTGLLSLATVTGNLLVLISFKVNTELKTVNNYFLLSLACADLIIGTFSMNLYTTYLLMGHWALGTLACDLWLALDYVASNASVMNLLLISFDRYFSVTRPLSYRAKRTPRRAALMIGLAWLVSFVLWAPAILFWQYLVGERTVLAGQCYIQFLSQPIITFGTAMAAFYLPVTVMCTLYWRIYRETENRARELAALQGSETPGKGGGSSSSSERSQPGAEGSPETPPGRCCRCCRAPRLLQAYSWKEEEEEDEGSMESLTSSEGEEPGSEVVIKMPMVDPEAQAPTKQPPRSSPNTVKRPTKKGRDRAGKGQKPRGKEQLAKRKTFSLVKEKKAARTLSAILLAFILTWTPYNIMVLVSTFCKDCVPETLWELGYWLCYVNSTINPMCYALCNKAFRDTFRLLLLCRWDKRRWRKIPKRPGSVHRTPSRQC
Experiment: mAChR M1 cell-based functional assay (calcium mobilization, potentiation of EC20 acetylcholine response)
Conditions: for M1 AChmax (%): maximal response as % of ACh maximum, CHO-K1 cells expressing M1; for EC50: positive allosteric modulator activity, concentration-dependent increase in EC20 acetylcholine response, CHO-K1 cells, >10 μM estimated where no plateau but >20% increase in ACh response
From the text: Chinese hamster ovary (CHO-K1) cells stably expressing rat (r)M1 were purchased from the American Type Culture Collection and cultured according to their indicated protocol. CHO cells stably expressing human (h)M2, hM3, and hM5 were described previously (Levey, et al., 1991); hM1 and hM4 cDNAs were purchased from Missouri S&T cDNA Resource; rM4 cDNA was provided by T. I. Bonner (National Institutes of Health, Bethesda, Md.). rM2 and rM3 were cloned from a rat brain cDNA library and sequence verified. hM1, rM2, rM3, hM4, and rM4 cDNAs were used to stably transfect CHO-K1 cells purchased from the American Type Culture Collection using Lipofectamine2000. To make stable rM2, hM2, rM3, hM4, and rM4 cell lines for use in calcium mobilization assays, these cells also were stably transfected with a chimeric G-protein (Gqi5) (provided by B. R. Conklin, University of California, San Francisco) using Lipofectamine 2000. rM1, hM1, rM3, hM3, rM5, and hM5 cells were grown in Ham's F-12 medium containing 10% heat-inactivated fetal bovine serum (FBS), 20 mM HEPES, and 50 μg/mL G418 sulfate. rM2-Gqi5, hM2-Gqi5, and hM4-Gqi5 cells were grown in the same medium also containing 500 μg/mL Hygromycin B. Stable rM4-Gqi5 cells were grown in DMEM containing 10% heat-inactivated FBS, 20 mM HEPES, 400 μg/mL G418 sulfate, and 500 μg/mL Hygromycin B.
For high throughput measurement of agonist-evoked increases in intracellular calcium, CHO-K1 cells stably expressing muscarinic receptors were plated in growth medium lacking G418 and hygromycin at 15,000 cells/20 μL/well in Greiner 384-well black-walled, tissue culture (TC)-treated, clear-bottom plates (VWR). Cells were incubated overnight at 37° C. and 5% CO2. The next day, cells were washed using an ELX 405 (BioTek) with four washes (80 μL) of assay buffer then aspirated to 20 μL. Next, 20 μL of 16 μM Fluo-4/acetoxymethyl ester (Invitrogen, Carlsbad, Calif.) prepared as a 2.3 mM stock in DMSO and mixed in a 1:1 ratio with 10% (w/v) Pluronic F-127 and diluted in assay buffer was added to the wells and the cell plates were incubated for 50 min at 37° C. and 5% CO2. Dye was removed by washing with the ELX 405 (four 80 μL washes of assay buffer) then aspirated to 20 μL. Compound master plates were formatted in an 11 point CRC format (1:3 dilutions) in 100% DMSO with a starting concentration of 10 mM using the BRAVO liquid handler (Agilent). Test compound CRCs were then transferred to daughter plates (240 nL) using the Echo acoustic plate reformatter (Labcyte, Sunnyvale, Calif.) and then diluted into assay buffer (40 μL) to a 2× stock using a Thermo Fisher Combi (Thermo Fisher Scientific, Waltham, Mass.).
Calcium flux was measured using the Functional Drug Screening System (FDSS) 6000 (Hamamatsu Corporation, Tokyo, Japan) as an increase in the fluorescent static ratio. Compounds were applied to cells (20 μL, 2×) using the automated system of the FDSS 6000 at 4 s into the 300 s protocol and the data were collected at 1 Hz. At 144 s into the 300s protocol, 10 μL of an EC20 concentration of the muscarinic receptor agonist acetylcholine was added (5×), followed by the addition of 12 μL an EC8O concentration of acetylcholine at the 230 s time point (5×). Agonist activity was analyzed as a concentration-dependent increase in calcium mobilization upon compound addition. Positive allosteric modulator activity was analyzed as a concentration-dependent increase in the EC20 acetylcholine response. Antagonist activity was analyzed as a concentration-dependent decrease in the EC80 acetylcholine response. Concentration-response curves were generated using a four-parameter logistical equation in XLfit curve fitting software (IDBS, Bridgewater, N.J.) for Excel (Microsoft, Redmond, Wash.) or Prism (GraphPad Software, Inc., San Diego, Calif.). […]

O=C1c2c(ccc3nccn23)CN1Cc1ccc(-n2nccn2)cc1 [Compound 42]
M1 AChmax (%): 35%
EC50: > 10 µM

O=C1c2c(ccc3nccn23)CN1Cc1c(F)cc(-c2ccc3ncccc3c2)cc1F [Compound 39]
M1 AChmax (%): 28%

Cn1cc(-c2ccc(F)c(CN3Cc4ccc5nncn5c4C3=O)c2)cn1 [Compound 21]
M1 AChmax (%): 36.8%
EC50: > 10 µM

O=C1c2c(ccc3nccn23)CN1Cc1ccc(N2CCOCC2)nc1 [Compound 38]
M1 AChmax (%): 26%
EC50: > 10 µM

Cn1cc2c(-c3cc(F)c(CN4Cc5ccc6nccn6c5C4=O)c(F)c3)cccc2n1 [Compound 32]
M1 AChmax (%): 72%
EC50: 1.4 µM

O=C1c2c(ccc3nccn23)CN1Cc1ccc(-n2ccnn2)nc1 [Compound 37]
M1 AChmax (%): 26%
EC50: > 10 µM

Cn1cc(-c2ccc(CN3Cc4ccc5nccn5c4C3=O)c(F)c2)cn1 [Compound 27]
M1 AChmax (%): 70.1%
EC50: 2.26 µM

Cn1cc2cc(-c3ccc(CN4Cc5ccc6nccn6c5C4=O)c(F)c3)ccc2n1 [Compound 34]
M1 AChmax (%): 62%
EC50: 3.9 µM

Cn1cc2c(-c3ccc(F)c(CN4Cc5ccc6nncn6c5C4=O)c3)cccc2n1 [Compound 23]
M1 AChmax (%): 56.4%
EC50: 1.35 µM

Cc1nnc2ccc3c(n12)C(=O)N(Cc1ccc(-c2ccc4nn(C)cc4c2)cc1F)C3 [Compound 16]
M1 AChmax (%): 83%
EC50: 1.21 µM

O=C1c2c(ccc3nncn23)CN1Cc1ccc(-c2cnc3ccccc3c2)cc1F [Compound 4]
M1 AChmax (%): 73%
EC50: 1.75 µM

Cc1cn2c3c(ccc2n1)CN(Cc1c(F)cc(-c2cnn(C)c2)cc1F)C3=O [Compound 29]
EC50: > 30 µM

CNC(=O)c1ccc(CN2Cc3ccc4nccn4c3C2=O)cc1 [Compound 41]
M1 AChmax (%): 38%

COc1ccc(-c2cc(F)c(CN3Cc4ccc5nncn5c4C3=O)c(F)c2)cn1 [Compound 7]
M1 AChmax (%): 70%
EC50: 2.64 µM

Cn1cc(-c2cc(F)c(CN3Cc4ccc5ncnn5c4C3=O)c(F)c2)cn1 [Compound 31, 7-(2,6-difluoro-4-(1-methyl-1H-pyrazol-4-yl)benzyl)-6,7-dihydro-8H-pyrrolo[3,4-e][1,2,4]triazolo[1,5-a]pyridin-8-one]
M1 AChmax (%): 85.3%
EC50: 1.63 µM

Cc1ccc(CN2Cc3ccc4nccn4c3C2=O)cn1 [Compound 36]
M1 AChmax (%): 25%
EC50: > 10 µM

Cn1cc2c(-c3cc(F)c(CN4Cc5ccc6nncn6c5C4=O)c(F)c3)cccc2n1 [Compound 1, 7-(2,6-difluoro-4-(2-methyl-2h-indazol-4-yl)benzyl)-6,7-dihydro-8H-pyrrolo[3,4-e][1,2,4]triazolo [4,3-a]pyridin-8-one]
M1 AChmax (%): 72 (n = 2) %

Cc1nnc2ccc3c(n12)C(=O)N(Cc1c(F)cc(-c2cccc4nn(C)cc24)cc1F)C3 [Compound 19]
M1 AChmax (%): 81%
EC50: 1.41 µM

Cc1ccc(-c2ccc(CN3Cc4ccc5nncn5c4C3=O)c(F)c2)c2cn(C)nc12 [Compound 8]
M1 AChmax (%): 82%
EC50: 1.06 µM

Cn1cc2cc(-c3ccc(F)c(CN4Cc5ccc6nncn6c5C4=O)c3)ccc2n1 [Compound 22]
M1 AChmax (%): 35.3%
EC50: 1.31 µM

Cn1cc(-c2cc(F)c(CN3Cc4ccc5nncn5c4C3=O)c(F)c2)cn1 [Compound 3]
M1 AChmax (%): 83%
EC50: 0.656 µM

COc1ccc(-c2ccc(F)c(CN3Cc4ccc5nncn5c4C3=O)c2)cn1 [Compound 26]
EC50: > 30 µM

Cn1cc2cc(-c3cc(F)c(CN4Cc5ccc6nccn6c5C4=O)c(F)c3)ccc2n1 [Compound 35]
M1 AChmax (%): 42%

Cn1cc(-c2cc(F)c(CN3Cc4ccc5nccn5c4C3=O)c(F)c2)cn1 [Compound 28, 2-(2,6-difluoro-4-(1-methyl-1H-pyrazol-4-yl)benzyl)-2,3-dihydro-1H-imidazo[1,2-a]pyrrolo[3,4-e]pyridin-1-one]
M1 AChmax (%): 67.7%
EC50: 2.37 µM

Cn1cc(-c2ccc(CN3Cc4ccc5nncn5c4C3=O)c(F)c2)cn1 [Compound 11]
M1 AChmax (%): 86%
EC50: 0.856 µM

Cc1cc(-c2ccc(CN3Cc4ccc5nnc(C)n5c4C3=O)c(F)c2)cc2cn(C)nc12 [Compound 20]
M1 AChmax (%): 84%
EC50: 2.1 µM

Cc1nnc2ccc3c(n12)C(=O)N(Cc1c(F)cc(-c2cnn(C)c2)cc1F)C3 [Compound 14]
M1 AChmax (%): 79%
EC50: 1.79 µM

O=C1c2c(ccc3nccn23)CN1Cc1ccc(-n2cccn2)cc1F [Compound 40]
M1 AChmax (%): 26%
EC50: > 10 µM

Cc1cc(-c2ccc(CN3Cc4ccc5nncn5c4C3=O)c(F)c2)cc2cn(C)nc12 [Compound 17]
M1 AChmax (%): 81%
EC50: 0.618 µM

O=C1c2c(ccc3nncn23)CN1Cc1c(F)cc(-c2ccc3ncccc3c2)cc1F [Compound 5]
M1 AChmax (%): 81%
EC50: 0.743 µM

Cc1ccc(-c2ccc(CN3Cc4ccc5nnc(C)n5c4C3=O)c(F)c2)c2cn(C)nc12 [Compound 18]
M1 AChmax (%): 82%
EC50: 2.14 µM

Cn1cc2c(-c3ccc(CN4Cc5ccc6nncn6c5C4=O)c(F)c3)cccc2n1 [Compound 2, 7-(2-fluoro-4-(2-methyl-2H-indazol-4-yl)benzyl)-6,7-dihydro-8H-pyrrolo [3,4-e][1,2,4]triazol[4,3-a]pyridin-8-one]
M1 AChmax (%): 78%
EC50: 0.688 µM

Cn1cc2cc(-c3ccc(CN4Cc5ccc6nncn6c5C4=O)c(F)c3)ccc2n1 [Compound 9, 7-(2-fluoro-4-(2-methyl-2H-indazol-5-yl)benzyl)-6,7-dihydro-8H-pyrrolo [3,4-e][1,2,4]triazolo[4,3-a]pyridin-8-one]
M1 AChmax (%): 90%
EC50: 0.502 µM

Cn1cc(-c2ccc(CN3Cc4ccc5ncnn5c4C3=O)c(F)c2)cn1 [Compound 30]
M1 AChmax (%): 85.9%
EC50: 0.677 µM

Cc1nnc2ccc3c(n12)C(=O)N(Cc1c(F)cc(-c2ccc4nn(C)cc4c2)cc1F)C3 [Compound 15]
M1 AChmax (%): 76%
EC50: 1.24 µM

Cn1cc2cc(-c3cc(F)c(CN4Cc5ccc6nncn6c5C4=O)c(F)c3)ccc2n1 [Compound 6]
M1 AChmax (%): 84%
EC50: 0.488 µM

O=C1c2c(ccc3nncn23)CN1Cc1c(F)cc(-c2cnc3ccccc3c2)cc1F [Compound 13]
M1 AChmax (%): 57%
EC50: 1.82 µM

O=C1c2c(ccc3nncn23)CN1Cc1ccc(-c2ccc3ncccc3c2)cc1F [Compound 10]
M1 AChmax (%): 84%
EC50: 1.57 µM

O=C1c2c(ccc3nncn23)CN1Cc1cc(-c2ccc3ncccc3c2)ccc1F [Compound 25]
EC50: > 30 µM

Cn1cc2c(-c3ccc(CN4Cc5ccc6nccn6c5C4=O)c(F)c3)cccc2n1 [Compound 33]
M1 AChmax (%): 65%
EC50: 2.2 µM
